We go through two molecules from patent US20240425891A1, “Host cells and methods for improved polyketide production using methylmalonyl-CoA-dependent polyketide synthase (PKS)” (THE REGENTS OF THE UNIVERSITY OF CALIFORNIA, priority 2023, published 2024).

In experiment [1] the test system is C. glutamicum Cz034. Briefly: Propionate tolerance of Cz034 in CGXII minimal medium (growth curve). In kind it is cell-based, Corynebacterium glutamicum. As to the method:
Propionate tolerance was first evaluated using Cz034 in CGXII minimal medium to evaluate the highest propionate concentration for ALE. The lag phase increased as the propionate concentration increased, and no growth was observed when the propionate concentration was over 8,000 mg/L (Extended Data FIG. S11a, b). Then, ALE was applied to improve propionate tolerance and germicidin production in Cz12 by repeatedly growing the strains in increasing concentrations of propionate until we reached 8,000 mg/L (Extended Data FIG. S12). After two months of evolution, 563 single colonies were picked up from plates. Most of them grew faster than the initial strain (Extended Data FIG. S13a, b, c, d). […] To clarify whether the increased germicidin production improved methylmalonyl-CoA utilization, germicidin titer was measured on evolved strains.
Colony PCR. Pick up colonies from plate and cultivate in BHI medium (30° C., 200 rpm) overnight (around 14-16 h). Prepare digestion solution (120 μL zymolase (E1005, ZYMO RESEARCH) and 2500 μL PBS pH=7.2) for 96 reactions. Take 3-5 μL overnight culture into 20 μL digestion solution, 30° C. for 1 h. Add 3-5 μL dimethyl sulfoxide (DMSO), then 98° C. for 10 min. Take 2 μL for 50 μL PCR reaction. Growth curve measurement. Various cells were pre-cultivated in BHI liquid medium (30° C., 200 rpm) overnight. […] Growth curve was measured by SpectraMaX M2e at 30° C.

Experiment [2] has as its target T1, hexokinase (HK2) (Homo sapiens, UniProt P52789).
T1 sequence (P52789 1-917): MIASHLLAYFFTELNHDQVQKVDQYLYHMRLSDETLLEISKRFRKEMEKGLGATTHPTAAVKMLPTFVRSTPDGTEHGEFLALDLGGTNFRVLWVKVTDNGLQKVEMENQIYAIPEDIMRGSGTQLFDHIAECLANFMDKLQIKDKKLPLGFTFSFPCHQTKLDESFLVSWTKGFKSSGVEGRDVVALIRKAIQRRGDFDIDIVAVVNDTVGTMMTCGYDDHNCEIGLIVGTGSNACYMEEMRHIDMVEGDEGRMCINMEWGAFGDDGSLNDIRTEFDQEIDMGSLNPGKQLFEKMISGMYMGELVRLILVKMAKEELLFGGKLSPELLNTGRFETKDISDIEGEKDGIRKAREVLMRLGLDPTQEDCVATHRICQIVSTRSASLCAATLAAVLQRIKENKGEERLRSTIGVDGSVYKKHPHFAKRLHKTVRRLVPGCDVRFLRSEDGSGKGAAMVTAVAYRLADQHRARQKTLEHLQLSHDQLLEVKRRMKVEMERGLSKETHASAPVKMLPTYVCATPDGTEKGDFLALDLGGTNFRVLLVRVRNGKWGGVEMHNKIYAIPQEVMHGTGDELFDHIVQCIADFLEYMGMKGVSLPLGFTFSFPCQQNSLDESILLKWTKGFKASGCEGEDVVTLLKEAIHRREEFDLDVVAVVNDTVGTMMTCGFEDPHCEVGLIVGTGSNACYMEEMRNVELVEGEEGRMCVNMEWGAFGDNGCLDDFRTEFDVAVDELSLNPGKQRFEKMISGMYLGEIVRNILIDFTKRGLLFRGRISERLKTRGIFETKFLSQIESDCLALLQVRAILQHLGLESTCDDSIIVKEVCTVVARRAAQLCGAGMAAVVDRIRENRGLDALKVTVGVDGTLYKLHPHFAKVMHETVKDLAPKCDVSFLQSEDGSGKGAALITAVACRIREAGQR
The settings on record: literature reference 36; cited from earlier work.

On to `CCC(=O)O` [propionate], for which, in experiment [1], the “propionate concentration above which no growth was observed” value was “over 8,000 mg/L”.

For germicidin, the “IC50 on hexokinase (HK2)” value in experiment [2] was 780 µg/mL.
